As a reminder, the Ki is a measure of affinity in units of concentration, obtained from inhibition or displacement. As a reminder, the Kd is the constant that tells how readily two partners part at equilibrium. In general, half-life refers to the time in which the quantity being followed falls by half. One may read the bioavailability as the share of a dose that reaches the circulation, judged against a reference dose that is usually intravenous. For orientation: EC50 means the concentration giving half of the maximal effect.

Data set [1] has as its target T1, Bcl-2-like protein 1 (Homo sapiens, UniProt Q07817). The experiment in a line: Inhibition of BCL-XL (unknown origin) incubated for 15 mins by fluorescence polarization assay. (In general: Fluorescence polarisation rises when a labelled molecule tumbles more slowly, as on binding a larger partner.)
Data set [2] concerns the target T1, Bcl-2-like protein 1. The experiment in a line: Binding affinity to BCL-XL (unknown origin) by 15N HSQC NMR analysis.
Data set [3] is described as follows: Half life in rat. The data set is classed as ADME. The following applies: in vivo.
Data set [4] in a line: Half life in mouse. It is filed as ADME, organism-based. The following applies: in vivo.
Data set [5] in a line: Oral bioavailability in dog. The data set is classed as ADME, organism-based, Canis lupus familiaris. The following applies: in vivo.
A short description of data set [6]: Oral bioavailability in rat. The data set is classed as ADME, organism-based. As to conditions: in vivo.
A short description of data set [7]: Oral bioavailability in mouse. The following applies: in vivo. It is filed as ADME, organism-based.
The nature of data set [8]: Half life in dog. The data set is classed as ADME, Canis lupus familiaris. The following applies: in vivo.
A short description of data set [9]: Half life in monkey. The data set is classed as ADME, Macaca mulatta. As to conditions: rhesus monkey, in vivo.
Data set [10] in a line: Oral bioavailability in monkey. It is filed as ADME, organism-based, Macaca mulatta. As to conditions: rhesus monkey, in vivo.
Data set [11] in a line: Half life in human. The data set is classed as ADME.
The target in the next data set is T2, Bcl-2-like protein 2 (Homo sapiens, UniProt Q92843).
T2 sequence (Q92843 whole entry): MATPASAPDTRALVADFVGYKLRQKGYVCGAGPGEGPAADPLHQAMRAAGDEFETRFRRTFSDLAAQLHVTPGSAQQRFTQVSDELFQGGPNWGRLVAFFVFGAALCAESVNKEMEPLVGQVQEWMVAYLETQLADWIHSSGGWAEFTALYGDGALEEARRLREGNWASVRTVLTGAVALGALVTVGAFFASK
The experiment in a line: Inhibition of BCL-W (unknown origin) by fluorescence polarization assay.

Data set [12] is described as follows: Toxicity in mouse xenografted with human haematological tumor at 12.5 mg/kg, po. It is filed as organism-based.

T1 sequence (Q07817 whole entry): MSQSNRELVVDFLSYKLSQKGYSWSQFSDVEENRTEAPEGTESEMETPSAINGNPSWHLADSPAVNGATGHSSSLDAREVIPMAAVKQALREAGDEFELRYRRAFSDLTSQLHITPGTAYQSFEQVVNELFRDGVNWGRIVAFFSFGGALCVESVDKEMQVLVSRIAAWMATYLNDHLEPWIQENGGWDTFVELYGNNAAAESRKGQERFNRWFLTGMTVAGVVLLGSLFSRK

At Bcl-2-like protein 1 [1], `O=C(O)c1ccc(-c2ccc(F)cc2)cc1/C=C/c1cccc(-c2ccccc2)c1` showed a Ki of 1.4 µM.
On Bcl-2-like protein 1 [2], `Oc1ccc(-c2ccccc2)cc1` showed a Kd of 6000 µM.
`CN(C)CC[C@H](CSc1ccccc1)Nc1ccc(S(=O)(=O)NC(=O)c2ccc(N3CCN(Cc4ccccc4-c4ccc(Cl)cc4)CC3)cc2)cc1[N+](=O)[O-]` [ABT 737]: the half-life in [3], in data set [4], in data set [8] and in [9] was 4 to 6.4 h in each case. In addition, the bioavailability in [5], in data set [6], in data set [7] and in data set [10] was 20% in each case.
Turning to `CCS(=O)(=O)Nc1ccc(Oc2ccc(F)cc2F)c(-c2cn(C)c(=O)c3[nH]ccc23)c1` [MIVEBRESIB], the half-life in data set [11] is 25 h.
The molecule `CC1(C)CCC(c2ccc(Cl)cc2)=C(CN2CCN(c3ccc(C(=O)NS(=O)(=O)c4ccc(N[C@H](CCN5CCOCC5)CSc5ccccc5)c(S(=O)(=O)C(F)(F)F)c4)cc3)CC2)C1` [NAVITOCLAX] had a Ki on Bcl-2-like protein 2 of 0.245 µM. The molecule also registered an EC50 in data set [12] of 0.083 µM.
`CC1(C)CCC(CN2CCN(c3ccc(C(=O)NS(=O)(=O)c4ccc(NCC5CCOCC5)c([N+](=O)[O-])c4)c(Oc4cnc5[nH]ccc5c4)c3)CC2)=C(c2ccc(Cl)cc2)C1` [VENETOCLAX]: in data set [12], the EC50 is 5.5 µM.

The record behind these values is ChEMBL document CHEMBL4342405, “Clinical candidates modulating protein-protein interactions: The fragment-based experience” (Eur J Med Chem, 2019).
